Paper PMC3714604 (European journal of medicinal chemistry, 2011)
Like-named read-outs stand apart in the source and are kept apart here.

What was measured:
rat brain membrane FAAH = conditions: cited from earlier work
FAAH = conditions: rats; ref [24]; cited from earlier work
[1] = In vitro chemical stability at alkaline pH; type: physicochemical; conditions: 1 μM, 300 nM, 100 nM
[2] = In vitro stability in rat liver S9 fraction with NADPH-regenerating system; type: in vitro ADME; conditions: for half-life: male, Wistar, rat, s9, pH 7.4
[3] = rat brain membrane FAAH activity, ref [24] and [38]

Structure (SMILES) | pIC50, inhibitory potency toward FAAH in vitro activity (rat brain membrane FAAH; [3]) | also measured
O=C(NC1CCCCC1)Oc1cccc(-c2ccccc2)c1 [Compound 1] | 7.20 | ID50, in vivo potency on FAAH inhibition (FAAH): 0.81 mg/kg; dependence of pseudo half-lives on concentration at pH 9.0 [1]: No significant difference
CNC(=O)Oc1cccc(-c2ccccc2)c1 [Compound 3] | 4.86 | –
CC(C)NC(=O)Oc1cccc(-c2ccccc2)c1 [Compound 4] | 6.28 | half-life [2]: < 2 min
CCCCNC(=O)Oc1cccc(-c2ccccc2)c1 [Compound 5] | 6.95 | half-life [2]: < 2 min
CCCCCCNC(=O)Oc1cccc(-c2ccccc2)c1 [Compound 6] | 7.24 | –
O=C(NC1CCC1)Oc1cccc(-c2ccccc2)c1 [Compound 7] | 7.27 | –
O=C(NC1CCCC1)Oc1cccc(-c2ccccc2)c1 [Compound 8] | 7.47 | –
O=C(NCC1CCCCC1)Oc1cccc(-c2ccccc2)c1 [Compound 9] | 7.18 | –
O=C(NC12CC3CC(CC(C3)C1)C2)Oc1cccc(-c2ccccc2)c1 [Compound 10] | 5.39 | stability to in vitro liver metabolism ([2]; rat liver S9, entire testing period): remained stable for the entire testing period; dependence of pseudo half-lives on concentration at pH 9.0 [1]: No significant difference
O=C(NCc1ccccc1)Oc1cccc(-c2ccccc2)c1 [Compound 11] | 6.86 | –
O=C(NCCc1ccccc1)Oc1cccc(-c2ccccc2)c1 [Compound 12] | 6.32 | –
O=C(NC1Cc2ccccc2C1)Oc1cccc(-c2ccccc2)c1 [Compound 13] | 6.67 | half-life [2]: > 60 min
O=C(NCc1ccc2ccccc2c1)Oc1cccc(-c2ccccc2)c1 [Compound 15] | 8.27 | –
O=C(NCCCCc1ccccc1)Oc1cccc(-c2ccccc2)c1 [Compound 16] | 8.03 | ID50, in vivo potency on FAAH inhibition (FAAH): 0.96 mg/kg; dependence of pseudo half-lives on concentration at pH 9.0 [1]: No significant difference
O=C(NCCCCCCc1ccccc1)Oc1cccc(-c2ccccc2)c1 [Compound 17] | 7.89 | –
O=C(NCCCCCCN1CCOCC1)Oc1cccc(-c2ccccc2)c1 [Compound 18] | 7.40 | –
NC(=O)c1cccc(-c2cccc(OC(=O)NCc3ccc4ccccc4c3)c2)c1 [Compound 19] | – | pIC50, inhibitory potency toward FAAH in vitro activity (rat brain membrane FAAH): 9.20
